Results from patent publication US11730717B1, “Melanin-inspired antimicrobial” (The Board of Regents for the Oklahoma Agricultural and …, priority 2020, dated 2023).
Several values for one entry are separate records, joined by “and”; a condition that tells them apart may be missing. Equal entries are not always repeated. Entries after “also recorded” stand apart in the source; their conditions may differ. Where two headings read alike, the source gives them in different places.

Experiments:
[1] = system: Escherichia coli (E. coli); assay: Antimicrobial activity against E. coli; format: cell-based
Experimental: (§1) The methicillin resistant Staphylococcus aureus (MRSA) and Pseudomonas aeruginosa (PA) strains used in this study are clinical isolates obtained from an adult CF patient at the Cystic Fibrosis Clinic at the OU Children's Hospital (Oklahoma City, Okla.). Escherichia coli (E. coli) and Enterococcus faecalis (E. faecalis) were obtained from American Type Culture Collection (ATCC). The strains were grown overnight with shaking at 37° C. (220 RPM) in 15 mL of Luria-Bertani (LB) broth. The overnight culture was sub-cultured the next day before use for the MIC experiments. All sub-cultures consisted of 1 mL of the overnight culture, mixed with 10 mL of Mueller Hinton broth. The working stock of the EIPE-1 and DBI was prepared by dissolving 1 mg of each in 1 mL of DMSO.
The minimum inhibitory concentrations (MICs) were determined by the broth microdilution method, following the guidelines of the Clinical and Laboratory Standards Institute (CLSI). Two-fold serial dilutions of EIPE-1, DBI, and Arm (starting with 1 mg/mL) were prepared in a 100 μL volume in 96-well microtiter plates. The dilution series included DMSO as a negative control. […] Plates were incubated with shaking at 220 RPM at 37° C., and the MIC was determined based on the lowest concentration at which no visible growth of the bacterial isolate was observed.

S. aureus SFL64 = assay: MIC and MBC values (Table 2); format: cell-based, Staphylococcus aureus; settings: repeated determinations
[2] = system: methicillin resistant Staphylococcus aureus (MRSA) clinical isolate; assay: MIC by broth microdilution; format: cell-based; settings: Staphylococcus aureus, MRSA, 18 h, clinical isolate of MRSA from an adult CF patient; broth culture, 18 h at 37° C.; read-out: minimum inhibitory concentration (MIC)
Experimental: as §1
(§2) The minimum inhibitory concentrations (MICs) were determined by the broth microdilution method, following the guidelines of the Clinical and Laboratory Standards Institute (CLSI). Two-fold serial dilutions of EIPE-1, DBI, and Arm (starting with 1 mg/mL) were prepared in a 100 μL volume in 96-well microtiter plates. The dilution series included DMSO as a negative control. The bacterial culture […] was normalized to an OD600 of 0.2 and was then added to each well. Plates were incubated with shaking at 220 RPM at 37° C., and the MIC was determined based on the lowest concentration at which no visible growth of the bacterial isolate was observed.
(§3) In order to determine the MIC of EIPE-1 on MRSA, a culture of MRSA was grown overnight in Mueller Hinton broth (MHB) at 37° C., sub-cultured by a 1/100 dilution into MHB and dispensed into a 96 well culture block (900 μL of diluted culture in each well). To each well either DMSO or a serial dilution of EIPE-1 was added, then the culture was grown for 18 h at 37° C. The next day each well was tested for either growth or inhibition of growth by measuring of the OD^600 of the resulting culture. […] For comparison, the MIC of EIPE-1 was also determined against E. faecalis (8 μg/mL, 9 μM), confirming activity against Gram-positive bacteria.

[3] = system: Enterococcus faecalis (E. faecalis); assay: MIC by broth microdilution; format: cell-based
Experimental: as §1, §2, §3

[4] = system: Candida albicans strain SC5314; assay: Antifungal MIC assay; format: cell-based; settings: for MIC: Candida albicans
Experimental: Cryptococcus neoformans serotype A strain H99 as well as Candida ablicans strain SC5314, were readily available in the lab. The stock of cells is stored at −80° C. to preserve the fungi and prevent contamination. The cells were grown and maintained in yeast extract-peptone-dextrose (YPD) media (Difco). Cryptococcus or Candida cells were incubated in YPD broth for 18 hrs at 30° C., in a shaking incubator. After the incubation period, they were washed three times in sterile phosphate-buffered saline (PBS) to remove all remaining residue of YPD. The cells were then quantified by using trypan blue dye exclusion in a hemocytometer.
C. albicans were suspended in RPMI with MOPS, 0.165M, at a concentration of 0.5×10^3 cells/mL. RPMI Mops media was added to a 96-well plate in a volume of 100 μL to every well, with the exception of column 1. An additional 80 μL of RPMI MOPS was added to column 4 for a total of 180 μL/per well. EIPE-1 was added to columns 2 and 4 with a volume of 20 μL at a concentration of 1 mg/mL. Contents were mixed, then serially diluted 100 μL down the plate until column 11. The last 100 μL was discarded, leaving column 12 blank. C. albicans was added at a volume of 100 μL per well from column 4 to column 12, so the final volume of the wells was 200 μL. Plates were incubated at 35° C. in a humid incubator for 48 hrs.

S. lactis = assay: MIC and MBC values (Table 2); format: cell-based; settings: repeated determinations
[5] = system: Candida isolates from the airways of CF patients; assay: MIC against Candida clinical isolates; format: cell-based; settings: range over multiple Candida isolates from CF patients (FIG. 8)
Experimental: EIPE-1 was evaluated against multiple Candida isolates from the airways of CF patients.

[6] = system: Pseudomonas aeruginosa (PA); assay: Comparison with Methicillin and Gentamicin, recoverable CFU; format: cell-based; settings: compared with Methicillin and Gentamicin treatment
Experimental: To determine CFUs of PA and MRSA after exposure to DMSO, DBI, EIPE-1, Gentamicin or Methicillin, 10-fold serial dilutions were prepared in 96-well micro plates using multichannel pipettes. For each dilution, 25 ptL of each sample was pipetted onto a plate containing agar medium and incubated for 18 h at 37° C. The number of colonies for each dilution were counted and used to back calculate the number of bacteria per mL (CFU/mL) in each original bacterial culture.
EIPE-1 antimicrobial activity against MRSA and PA was compared to that of Methicillin and Gentamicin treatment. Bacterial cultures were grown, normalized and then exposed to either DBI, DMSO (solvent control), EIPE-1, Methicillin or Gentamicin (FIG. 3). […] This is highly significant and novel as methicillin resistance is a huge problem in hospitals and patient treatment worldwide. […] Gram-negative bacteria like PA have an outer membrane covered with lipopolysaccharides that protects the bacteria from antibiotics, dyes, and detergents from penetrating the bacterial cell.

`COC(=O)c1cc2c(C#Cc3ccc(OCCC[N+](C)(C)C)cc3)c(OC)c(OC)c(C#Cc3ccc(OCCC[N+](C)(C)C)cc3)c2n1C` [EIPE-1, 3,3′-((((5,6-dimethoxy-2-(methoxycarbonyl)-1-methyl-1H-indole-4,7-diyl)bis(ethyne-2,1-diyl))bis(4,1-phenylene))bis(oxy))bis(N,N,N-trimethylpropan-1-aminium) iodide] was tested, and the “activity against E. coli” value [1] was “did not display any activity”, the “MIC” value (S. aureus SFL64; S. aureus SFL64) was 1.000 µg/mL and the MIC (S. aureus SFL64; Staphylococcus aureus, SFL64, S. aureus SFL64, read-out: MIC) was 0.5 µg/mL. For the same compound, the MIC [2] was 16 µg/mL and 17.1 µM, the MIC [3] was 8 µg/mL and 9 µM and the “Minimum inhibitory concentration (MIC) for the isolate of C. albicans” value ([4]; 35° C., 48 hrs, RPMI with MOPS) was 2.705 ± 0.3962 µg/mL. For the same compound, the MIC ([4]; SC5314, 48 h, 35° C., 48 hrs, RPMI with MOPS, read-out: Minimum inhibitory concentration (MIC) for the isolate of C. albicans) was 2.71 µg/mL, the MIC ([4]; SC5314, across seven experiments, read-out: Candida MIC) was 2.46 µg/mL and the MBC (S. lactis) was 2 µg/mL. The “MBC (μg/mL)” value (S. lactis) was 1.000 µg/mL, the MIC (S. lactis) was 1 µg/mL and the “MIC (μg/mL)” value (S. lactis) was 0.500 µg/mL. The MIC [5] was 4 to 11 µg/mL and the “activity against PA” value [6] was “does not appear to have activity; also recorded: did not display any activity”.
